Among the data in BindingDB's records for PubMed 38142509 (Sichuan University) are IC50 values, retold here.

The target of the test is Signal transducer and activator of transcription 3 (Homo sapiens, UniProt P40763). The experiment in a line: Inhibition of STAT3 (unknown origin).
Sequence of Signal transducer and activator of transcription 3 (P40763 whole entry): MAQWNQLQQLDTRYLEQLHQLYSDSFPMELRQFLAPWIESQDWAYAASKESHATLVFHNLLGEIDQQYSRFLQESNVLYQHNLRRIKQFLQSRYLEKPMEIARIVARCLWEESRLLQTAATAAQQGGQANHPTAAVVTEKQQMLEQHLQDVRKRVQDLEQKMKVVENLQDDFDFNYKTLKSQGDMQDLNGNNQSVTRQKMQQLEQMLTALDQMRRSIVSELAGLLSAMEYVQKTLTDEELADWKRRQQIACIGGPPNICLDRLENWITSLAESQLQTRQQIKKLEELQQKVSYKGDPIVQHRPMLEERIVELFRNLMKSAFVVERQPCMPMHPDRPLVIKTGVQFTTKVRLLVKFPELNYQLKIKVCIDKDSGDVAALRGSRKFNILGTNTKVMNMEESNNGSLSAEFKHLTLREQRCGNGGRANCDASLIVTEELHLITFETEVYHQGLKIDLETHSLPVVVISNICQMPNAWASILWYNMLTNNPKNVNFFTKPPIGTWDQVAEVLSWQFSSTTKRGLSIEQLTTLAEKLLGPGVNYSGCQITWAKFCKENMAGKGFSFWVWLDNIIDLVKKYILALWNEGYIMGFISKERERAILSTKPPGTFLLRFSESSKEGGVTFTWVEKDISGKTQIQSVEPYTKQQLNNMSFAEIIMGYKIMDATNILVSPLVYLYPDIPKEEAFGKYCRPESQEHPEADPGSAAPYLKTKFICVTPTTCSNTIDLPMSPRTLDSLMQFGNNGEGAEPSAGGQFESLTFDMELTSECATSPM

In turn, `COC(=O)[C@@]12OC[C@]34[C@H]([C@@H](O)[C@@H]1O)[C@@]1(C)CC(=O)C(O)=C(C)[C@@H]1C[C@H]3OC(=O)[C@H](OC(=O)C=C(C)C(C)(C)OC(C)=O)[C@@H]24` gave a concentration for half-maximal inhibition (IC50) of 2.4 nM.
